The values that follow come from US20150299219A1, “BICYCLIC PYRAZOLONE COMPOUNDS AND METHODS OF USE” (Calitor Sciences, LLC, priority 2014, published 2015).

Each structure is given as a SMILES string.

One assay has as its target T1, Mer (h) (Homo sapiens, UniProt Q12866).
T1 construct: purchased Millipore UK Ltd
T1 sequence (Q12866 21-999): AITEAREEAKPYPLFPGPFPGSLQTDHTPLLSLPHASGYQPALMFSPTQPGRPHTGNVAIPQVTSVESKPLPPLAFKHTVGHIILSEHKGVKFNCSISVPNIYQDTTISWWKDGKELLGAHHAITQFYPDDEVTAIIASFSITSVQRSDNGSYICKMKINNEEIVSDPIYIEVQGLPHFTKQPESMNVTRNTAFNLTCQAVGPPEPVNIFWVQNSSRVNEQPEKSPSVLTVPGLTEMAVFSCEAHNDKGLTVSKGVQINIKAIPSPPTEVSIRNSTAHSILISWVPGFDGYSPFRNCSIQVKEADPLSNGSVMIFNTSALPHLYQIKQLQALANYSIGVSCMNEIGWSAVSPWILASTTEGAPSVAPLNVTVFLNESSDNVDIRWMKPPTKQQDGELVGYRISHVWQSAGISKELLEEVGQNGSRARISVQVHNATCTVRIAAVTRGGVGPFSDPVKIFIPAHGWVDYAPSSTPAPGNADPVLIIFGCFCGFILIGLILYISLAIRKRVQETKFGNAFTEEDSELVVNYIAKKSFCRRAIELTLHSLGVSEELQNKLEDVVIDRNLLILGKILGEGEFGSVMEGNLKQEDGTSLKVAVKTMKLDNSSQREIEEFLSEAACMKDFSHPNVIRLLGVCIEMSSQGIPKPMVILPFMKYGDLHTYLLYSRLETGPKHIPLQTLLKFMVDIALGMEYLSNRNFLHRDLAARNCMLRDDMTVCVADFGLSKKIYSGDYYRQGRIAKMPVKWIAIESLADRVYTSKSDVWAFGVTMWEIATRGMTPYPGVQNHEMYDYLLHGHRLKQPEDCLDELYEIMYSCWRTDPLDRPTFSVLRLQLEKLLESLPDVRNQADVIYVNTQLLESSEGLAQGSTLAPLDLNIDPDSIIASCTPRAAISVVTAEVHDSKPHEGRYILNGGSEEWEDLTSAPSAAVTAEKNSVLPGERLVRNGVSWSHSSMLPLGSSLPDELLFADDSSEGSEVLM
As to the kind of experiment: Mer (h) kinase assay. It is filed as biochemical. The protocol:
(§1) The above assay procedure can be used to determine the IC50 for inhibition and/or the inhibition constant, Ki. The IC50 is defined as the concentration of compound required to reduce the enzyme activity by 50% under the condition of the assay. The IC50 value is estimated by preparing a 10 point curve using a 1/2 log dilution series (for example, a typical curve may be prepared using the following compound concentrations: 10 μM, 3 μM, 1 μM, 0.3 μM, 0.1 μM, 0.03 μM, 0.01 μM, 0.003 μM, 0.001 μM and 0 μM).
Mer (h) is incubated with 8 mM MOPS pH 7.0, 0.2 mM EDTA, 30 mM NaCl, 250 μM GGMEDIYFEFMGGKKK, 10 mM MgAcetate and [γ-^33P-ATP] (specific activity approx. 500 cpm/pmol, concentration as required). The reaction is initiated by the addition of the MgATP mix. After incubation for 40 minutes at room temperature, the reaction is stopped by the addition of 3% phosphoric acid solution. 10 μL of the reaction is then spotted onto a P30 filtermat and washed three times for 5 minutes in 75 mM phosphoric acid and once in methanol prior to drying and scintillation counting.
(§2) The kinase assays described herein were performed at Millipore UK Ltd, Dundee Technology Park, Dundee DD2 1SW, UK.

The next assay concerns the target T2, Axl (h) (Homo sapiens, UniProt P30530).
T2 construct: purchased Millipore UK Ltd
T2 sequence (P30530 26-894): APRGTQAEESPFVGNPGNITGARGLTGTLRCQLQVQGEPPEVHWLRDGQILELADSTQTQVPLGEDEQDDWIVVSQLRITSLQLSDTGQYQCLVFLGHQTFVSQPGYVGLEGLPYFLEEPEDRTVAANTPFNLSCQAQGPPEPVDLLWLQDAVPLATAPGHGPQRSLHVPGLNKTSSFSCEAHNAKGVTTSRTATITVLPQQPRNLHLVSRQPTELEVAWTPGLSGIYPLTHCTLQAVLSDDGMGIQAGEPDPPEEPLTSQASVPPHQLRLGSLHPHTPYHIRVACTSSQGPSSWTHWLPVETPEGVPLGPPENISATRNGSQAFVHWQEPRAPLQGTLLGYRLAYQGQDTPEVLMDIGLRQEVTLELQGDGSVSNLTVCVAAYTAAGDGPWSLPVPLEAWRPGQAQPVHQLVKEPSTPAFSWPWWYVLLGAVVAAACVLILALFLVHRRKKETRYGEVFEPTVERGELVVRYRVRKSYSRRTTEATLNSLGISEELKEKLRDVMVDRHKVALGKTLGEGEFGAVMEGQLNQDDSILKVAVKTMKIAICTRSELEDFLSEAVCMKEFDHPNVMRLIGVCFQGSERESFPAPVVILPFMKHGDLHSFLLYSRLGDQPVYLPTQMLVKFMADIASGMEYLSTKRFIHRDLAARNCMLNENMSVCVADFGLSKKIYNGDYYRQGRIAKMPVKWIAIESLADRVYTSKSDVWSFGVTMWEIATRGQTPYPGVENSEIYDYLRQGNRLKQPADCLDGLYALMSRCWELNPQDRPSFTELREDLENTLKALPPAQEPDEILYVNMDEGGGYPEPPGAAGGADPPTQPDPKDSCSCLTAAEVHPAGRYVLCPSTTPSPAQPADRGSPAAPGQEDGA
As to the kind of experiment: Axl (h) kinase assay. It is filed as biochemical. The protocol:
as §1
Axl (h) is incubated with 8 mM MOPS pH 7.0, 0.2 mM EDTA, 250 μM KKSRGDYMTMQIG, 10 mM MgAcetate and [γ-^33P-ATP] (specific activity approx. 500 cpm/pmol, concentration as required). The reaction is initiated by the addition of the MgATP mix. After incubation for 40 minutes at room temperature, the reaction is stopped by the addition of 3% phosphoric acid solution. 10 μL of the reaction is then spotted onto a P30 filtermat and washed three times for 5 minutes in 75 mM phosphoric acid and once in methanol prior to drying and scintillation counting.
as §2

Turning to `O=C(Nc1ccc(Oc2ccnc(NC(=O)C3CC3)c2)cc1)c1c2n(n(-c3ccccc3)c1=O)CCC2` [Ex. 2, N-(4-((2-(cyclopropanecarboxamido)pyridin-4-yl)oxy)phenyl)-2-oxo-1-phenyl-2,4,5,6-tetrahydro-1H-pyrrolo[1,2-b]pyrazole-3-carboxamide], at Mer (h), the IC50 – broadly, the concentration that inhibits the measured activity by half – stood at 3 nM.
On the same count and under the same terms, next, `CC(=O)Nc1cc(Oc2ccc(NC(=O)c3c4n(n(-c5ccccc5)c3=O)CCC4)cc2)ccn1` [Ex. 3, N-(4-((2-acetamidopyridin-4-yl)oxy)phenyl)-2-oxo-1-phenyl-2,4,5,6-tetrahydro-1H-pyrrolo[1,2-b]pyrazole-3-carboxamide]: 35 nM.
On to `CC(=O)Nc1cc(Oc2ccc(NC(=O)c3c4n(n(-c5ccccc5)c3=O)CCOC4)nc2)ccn1` [Ex. 12, N-(5-((2-acetamidopyridin-4-yl)oxy)pyridin-2-yl)-2-oxo-1-phenyl-2,4,6,7-tetrahydro-1H-pyrazolo[5,1-c][1,4]oxazine-3-carboxamide], for which the values for the IC50 at Axl (h) and against Mer (h) were 14 nM and 74 nM, respectively.
The matching figures for `O=C(Nc1ccc(Oc2ccnc(NC(=O)C3CC3)c2)cn1)c1c2n(n(-c3ccccc3)c1=O)CCC2` [Ex. 14, N-(5-((2-(cyclopropanecarboxamido)pyridin-4-yl)oxy)pyridin-2-yl)-2-oxo-1-phenyl-2,4,5,6-tetrahydro-1H-pyrrolo[1,2-b]pyrazole-3-carboxamide]: 7 nM and 8 nM.
The matching figures for `O=C(Nc1ccc(Oc2ccnc(NC(=O)C3CC3)c2)cc1)c1c2n(n(-c3ccccc3)c1=O)CCOC2` [Ex. 19, N-(4-((2-(cyclopropanecarboxamido)pyridin-4-yl)oxy)phenyl)-2-oxo-1-phenyl-2,4,6,7-tetrahydro-1H-pyrazolo[5,1-c][1,4]oxazine-3-carboxamide]: 5 nM and 5 nM.
